Measured values taken from patent US20090012088A1 (priority 2005, published 2009).
Entries after “also recorded” stand apart in the source; their conditions may differ. Where two headings read alike, the source gives them in different places.

Legend:
[1] = target: T1, PARG (Bos taurus, UniProt O02776); conditions: cited from earlier work
[2] = test system: 34I cells; conditions: cited from earlier work
[3] = target: T2, PARG (Homo sapiens, UniProt Q86W56); conditions: tannins; read-out: in vitro IC50 for PARG; cited from earlier work
T2 sequence (Q86W56 whole entry, species assumed): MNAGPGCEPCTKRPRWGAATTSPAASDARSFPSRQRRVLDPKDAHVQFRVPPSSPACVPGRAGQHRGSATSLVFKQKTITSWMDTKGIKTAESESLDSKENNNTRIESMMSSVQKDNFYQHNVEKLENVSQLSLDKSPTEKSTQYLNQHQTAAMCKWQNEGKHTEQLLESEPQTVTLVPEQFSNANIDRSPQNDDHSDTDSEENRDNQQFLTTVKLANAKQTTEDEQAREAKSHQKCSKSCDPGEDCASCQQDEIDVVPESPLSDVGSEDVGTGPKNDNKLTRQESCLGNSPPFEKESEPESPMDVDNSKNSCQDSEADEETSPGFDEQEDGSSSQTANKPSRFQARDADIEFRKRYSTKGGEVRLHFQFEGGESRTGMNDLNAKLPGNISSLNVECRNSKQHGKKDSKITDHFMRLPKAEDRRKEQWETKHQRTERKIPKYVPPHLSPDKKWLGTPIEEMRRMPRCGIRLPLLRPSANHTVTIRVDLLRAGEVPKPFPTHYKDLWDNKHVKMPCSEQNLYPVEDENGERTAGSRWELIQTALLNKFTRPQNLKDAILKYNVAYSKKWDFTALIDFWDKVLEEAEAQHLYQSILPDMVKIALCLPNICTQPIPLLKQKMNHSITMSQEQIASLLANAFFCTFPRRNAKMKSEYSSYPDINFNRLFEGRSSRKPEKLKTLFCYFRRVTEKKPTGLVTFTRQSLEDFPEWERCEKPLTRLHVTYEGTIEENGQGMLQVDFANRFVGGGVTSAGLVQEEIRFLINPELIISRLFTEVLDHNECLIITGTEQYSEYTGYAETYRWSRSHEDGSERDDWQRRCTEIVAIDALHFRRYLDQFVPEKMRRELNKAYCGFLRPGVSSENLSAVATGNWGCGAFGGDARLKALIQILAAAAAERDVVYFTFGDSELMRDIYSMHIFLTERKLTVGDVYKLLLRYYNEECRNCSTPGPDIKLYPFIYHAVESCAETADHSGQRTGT

[4] = target: T2, PARG; conditions: cited from earlier work
[5] = test system: NAD^+ depletion in HL-60 cell lysate; test: Whole cell assay screen: NAD+ depletion in H2O2-activated HL-60 cell lysate; assay type: cell-based
Method: To identify a non-toxic, non-DNA intercalating, cell permeable small molecule inhibitor of PARG, a high-throughput screen is devised. Given the severe challenges in isolating enough of the PAR substrate for an in vitro screen directly for PARG inhibition, we develop a primary screen that utilizes cell lysates and, in particular, mammalian cell lysates. In this assay, HL-60 cells are treated with H2O2 to damage their DNA (which activates PARP-1) and then lyse the cells. In individual wells of a 384-well plate, this cell lysate is incubated with 22,000 different small molecules from an in-house compound collection; these compounds are either purchased (from ChemBridge Corp.) or collected from various sources at the University of Illinois. (28) NAD^+ levels are measured using a fluorescent method based on the chemical conversion of NAD^+ to a fluorescent product (29, 30) (FIG. 14A). The amount of NAD^+ consumed in each well is monitored, and any compounds that prevent NAD^+ consumption are classified “hits” in this primary screen.
Library screen: 12.5 μL of Lysing PARP buffer (50 mM Tris, 10 mM MgCl2, pH 8.0, 1% Triton X-100) containing 100 μM NAD^+ is added to each well of a 384-well plate. Library compounds at 10 mM in DMSO are transferred using a 384-well pin transfer device that delivers 0.1 μL. HL-60 cells are spun down at 200 g for 5 min. and resuspended in Lysing PARP buffer to a concentration of 8×10^6 cells/mL. 10 μL of a 30% H2O2 solution is added per mL of cells. 12.5 μL of the activated cell lysate is added to the plates. The plates are incubated for 60 min. at 37° C. The concentration of NAD^+ is then determined using a fluorescent assay^1. 10 μL of a 2 M KOH solution and 10 μL of a 20% acetophenone solution (in ethanol) is added to each well. The plate is then incubated at 4° C. for 10 min. 45 μL of a 88% formic acid solution was added to each well. The plate was then incubated for 5 min. in a 110° C. oven. Once the plate cools, the fluorescent intensity of each well is determined on a Criterion Analyst AD (Molecular Devices) with an excitation of 360 nm and an emission of 445 nm.

[6] = test system: neuronally differentiated PC-12 cells; test: Protection from rotenone induced toxicity in neuronally differentiated PC-12 cells; assay type: cell-based
Method: Rotenone is a complex I poison and is widely used in cell culture and animal models of PD. (20, 31, 32) To determine if PIP-1 protects cells from rotenone insult, PC-12 cells are neuronally differentiated (with neuronal growth factor β for 10 days) and then treated with 10 μM rotenone and a range of PIP-1 concentrations. After 72 hours, cell death is assessed using propidium iodide staining as measured by flow cytometry. […] To determine the features on PIP-1 that are important for PARG inhibition and cell protection, three derivatives are constructed that lacked key functionality (see FIG. 19 compounds labeled 3, 4 and 5).
Cell culture conditions: HL-60 and SK-N-SH cells are grown in RPMI 1640 media supplemented with 10% FBS and PC-12 cells are grown in RPMI 1640 media supplemented with 10% HS and 5% FBS. All cell lines are incubated at 37° C. in a 5% CO2, 95% air atmosphere. HL-60 cells are split every two to three days as needed and SK-N-SH cells are split when they reach approximately 90% confluency at a 1:6 ratio. SK-N-SH cells are differentiated by adding media containing 10 μM retinoic acid (in DMSO). Media is replaced every other day and cells are differentiated for a total of 12 days. PC-12 cells are differentiated by adding media containing 25 ng/mL Neuronal Growth Factro β. Media is replaced every other day and cells are differentiated for a total of 10 days. Differentiation is observed by microscopy.
Protection of Rotenone and MPP^+ induced toxicity in PC-12 and SK-N-SH cells: SK-N-SH and PC-12 cells are neuronally differentiated as described above. 10 μM rotenone, 10 μM MPP^+ and various concentrations of PIP-1 or its derivatives are added to the cells and incubated for 72 h. The cells are then washed in PBS and the viability is determined by adding propidium iodide to 1 μg/mL and measuring the fluorescent intensity of each cell by flow cytometry.

[7] = target: T1, PARG; test: Inhibition of PARG activity in vitro (quantitation of free ADP-ribose with benzamidine, fluorescence); assay type: biochemical; parameters: purchased Biomol
Method: PARG assay: Production and purification of PAR. PARP-1 (20 units) is added to 900 μL of PARP assay buffer containing 1 mM NAD^+ and 22.5 μg activated DNA. This reaction was run at 37° C. for 30 min and stopped by the addition of 300 μL of cold 100% trichloroacetic acid. The proteins thus precipitated are collected by centrifugation at 18,000 g for 30 min at 4° C. After removal of the supernatant, 1 mL of 1 M NaOH and 100 mM EDTA are added to the pellet and incubated for 2 h at 37° C. to cleave the PAR from the PARP protein acceptor. Then 9 mL of PAR buffer A (250 mM ammonium acetate, 6 M guanidinium HCl, 10 mM EDTA, pH 9.0) is added to the PAR and applied to a PROSEP-PB (Millipore) phenyl boronate column that is pre-equilibrated with PAR buffer A. The flowthrough is then reapplied to the column to ensure that all PAR is bound. The column is then washed with 25 mL of PAR buffer A, followed by 10 mL of PAR buffer B (1 M ammonium acetate and 1 mM EDTA, pH 9.0). The bound PAR is eluted with 4 mL of water collected in 1-mL fractions. Fractions containing PAR are pooled and concentrated. The concentration, measured as monomer, is determined by measuring the absorbance at 258 nm. PAR has an extinction coefficient of 13,500 cm^−1 at 258 nm.
Inhibition of PARG Activity: To determine the PARG IC50 values of the compounds, 39 μL of a 25.6 μM solution of PAR in PARG assay (50 mM KCl, 50 mM KH2PO4, pH 7.2) buffer and 1 μL of the compounds at varying concentrations (in PARG assay buffer) are added into the wells of a 384-well plate. The reaction is initiated by the addition of 10 μL of PARG (Biomol) at a concentration of 1 ng/ml (in PARG assay buffer), bringing the final concentration to […] and 20 μM PAR with varying concentrations of compounds in a total volume of 50 μL. The plate is incubated for 20 min at room temperature. The amount of free ADP-ribose hemiacetals is determined by the addition of 5 μL of an aqueous 8.5M KOH solution and 5 μL of an aqueous 850 μM benzamidine solution to each well. The plate is then incubated for 10 min in an oven set at 110° C. The plate is allowed to cool and then read on a Criterion Analyst AD with an excitation of 360 nm and an emission of 445 nm.

[8] = test system: rat model of focal cerebral ischemia; conditions: cited from earlier work
[9] = test system: human neuroblastoma cells; conditions: cited from earlier work
[10] = target: T2, PARG; conditions: 32P-PAR assay; KM of PAR 1.7 μM; cited from earlier work

T1 sequence (O02776 whole entry): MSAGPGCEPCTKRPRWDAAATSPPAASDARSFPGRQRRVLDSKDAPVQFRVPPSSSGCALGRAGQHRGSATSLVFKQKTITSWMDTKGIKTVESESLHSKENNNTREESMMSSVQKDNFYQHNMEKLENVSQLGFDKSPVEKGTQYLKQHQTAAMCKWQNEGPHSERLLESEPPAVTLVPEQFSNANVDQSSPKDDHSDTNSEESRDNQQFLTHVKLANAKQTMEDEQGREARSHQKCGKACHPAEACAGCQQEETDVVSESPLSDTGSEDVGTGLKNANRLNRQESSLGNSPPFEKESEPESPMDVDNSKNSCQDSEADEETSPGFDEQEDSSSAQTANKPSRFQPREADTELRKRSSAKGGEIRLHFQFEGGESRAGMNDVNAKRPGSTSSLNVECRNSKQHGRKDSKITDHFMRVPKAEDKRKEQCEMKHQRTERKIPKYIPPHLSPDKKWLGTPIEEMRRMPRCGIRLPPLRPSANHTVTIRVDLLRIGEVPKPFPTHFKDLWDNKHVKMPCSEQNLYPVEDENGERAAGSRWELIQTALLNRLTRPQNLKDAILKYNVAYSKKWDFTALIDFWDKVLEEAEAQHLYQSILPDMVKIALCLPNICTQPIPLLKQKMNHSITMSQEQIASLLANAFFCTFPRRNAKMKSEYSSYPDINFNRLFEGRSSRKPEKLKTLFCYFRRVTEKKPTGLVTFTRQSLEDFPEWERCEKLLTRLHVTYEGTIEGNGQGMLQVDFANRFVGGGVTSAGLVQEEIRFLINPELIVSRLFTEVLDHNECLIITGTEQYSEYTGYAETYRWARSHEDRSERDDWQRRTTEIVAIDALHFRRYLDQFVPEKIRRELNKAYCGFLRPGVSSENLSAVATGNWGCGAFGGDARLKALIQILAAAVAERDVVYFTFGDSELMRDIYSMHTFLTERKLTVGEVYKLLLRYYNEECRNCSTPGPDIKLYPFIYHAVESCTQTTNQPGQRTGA

For `Nc1ncnc2c1ncn2[C@@H]1O[C@H](COP(=O)(O)OP(=O)(O)OC[C@H]2OC(O)[C@H](O)[C@@H]2O)[C@@H](O)[C@H]1O` (stereo partly shown) [ADP-ribose], the IC50 ([1]; substrate analogues, FIG. 9) is listed as 120 µM.
In the case of nobotanin B, the “Inhibition of PAR catabolism in intact cells” value (shortened to “Inhibition of PAR catabolism”) [2] is listed as “concentration-dependent inhibition of PAR catabolism” and the IC50 [3] is listed as 4.8 µM.
In the case of pargamicin, the “IC50 for PARG” value [4] is given as 28 µg/mL.
For `O=C(OC[C@H]1O[C@@H](OC(=O)c2cc(O)c(O)c(O)c2)[C@@H]2OC(=O)c3cc(O)c(O)c(O)c3-c3c(cc(O)c(O)c3O)C(=O)O[C@H]2[C@@H]1OC(=O)c1cc(O)c(O)c(O)c1Oc1cc2c(c(O)c1O)-c1c(cc(O)c(O)c1O)C(=O)O[C@H]1[C@@H]3OC(=O)c4cc(Oc5c(C(=O)O[C@H]6[C@@H]7OC(=O)c8cc(O)c(O)c(O)c8-c8c(cc(O)c(O)c8O)C(=O)O[C@H]7[C@H](OC(=O)c7cc(O)c(O)c(O)c7)O[C@@H]6COC(=O)c6cc(O)c(O)c(O)c6)cc(O)c(O)c5O)c(O)c(O)c4-c4c(cc(O)c(O)c4O)C(=O)O[C@H]3[C@H](OC(=O)c3cc(O)c(O)c(O)c3)O[C@@H]1COC2=O)c1cc(O)c(O)c(O)c1` [nobotanin E], the “Inhibition of PAR catabolism” value [2] is listed as “little inhibitory effect”.
For `CN(C)c1ccn(-c2ccccc2)c(=O)c1N` [compound 4, 3-Amino-4-dimethylamino-1-phenyl-1H-pyridin-2-one], the “Inhibition of NAD+ depletion in the whole cell assay” value [5] was “inhibit NAD^+ depletion”, the “Protection of rotenone-treated neuronally differentiated PC-12 cells (in words)” value ([6]; listed as lactam 4) was “virtually identical PARG inhibition and cell protection properties as PIP-1; also recorded: protect” and the “PARG inhibition in vitro (in words)” value ([7]; listed as lactam 4) was “virtually identical PARG inhibition and cell protection properties as PIP-1; also recorded: inhibit PARG activity in vitro”.
In the case of `O=C(NCCCc1ccccc1)c1ccc2c(c1)C(=O)c1cc(C(=O)NCCCc3ccccc3)ccc1-2` [GPI 16552, 2,7-Bis[N-(3-phenyl-propyl)carbamoyl]-9-Oxo-9H-fluorene], the “Reduction of total infarct volume” value ([8]; 30-minute pre-ischemia or 1- or 2-hour post-ischemia treatment) is listed as 47-53%, the “Protection in cortical areas” value ([8]; rat, in vivo) is listed as 43-59% and the “Protection in subcortical areas” value ([8]; rat, in vivo) is listed as 28-40%.
In the case of `C=CCN1CCc2nc(N)sc2CC1` [talipexole], the “Concentration required for protection” value [9] is listed as 1 mM.
For `CN(C)c1cnn(C)c(=O)c1N` [compound 6, 4-Amino-5-dimethylamino-2-methyl-2H-pyridazin-3-one], the “Inhibition of NAD+ depletion in the whole cell assay” value [5] was “do not inhibit NAD^+ depletion”, the “Protection of rotenone-treated neuronally differentiated PC-12 cells (in words)” value [6] was “inactive” and the “Protection of rotenone-treated neuronally differentiated PC-12 cells (in words)” value ([6]; listed as analogue 6) was “do not protect”. The “PARG inhibition in vitro (in words)” value [7] was “inactive” and the “PARG inhibition in vitro (in words)” value ([7]; listed as analogue 6) was “do not inhibit NAD^+ depletion or PARG activity”.
For `CCN(CC)CCOc1ccc2c(c1)C(=O)c1cc(OCCN(CC)CC)ccc1-2` [Tilorone], the Ki [10] is listed as ~7 µM.
In the case of `CCC(C)CC1CCC(O)(C(C)(O)C(=O)NC2C(=O)N3NCCCC3C(=O)N(O)C(C)C(=O)NCC(=O)N3NCCCC3C(=O)N(O)C(C)C(=O)OC2C(C)C)OC1C` (stereo not shown) [PD 124,966], the “IC50 for PARG” value [4] is given as 40 µg/mL.
For Oenothein B, the IC50 [3] is given as 3.8 µM.
In the case of “adenosine diphosphate (hydroxymethyl)pyrrolidinediol [ADP-HPD]”, the “IC50 lower than that of ADP-ribose” value [1] is listed as 1000 fold.
In the case of `CCOc1ccc2nc3cc(N)ccc3c(N)c2c1` [ethacridine], the Ki [10] is given as < 7 µM.
For `Nc1ccc2cc3ccc(N)cc3nc2c1` [profavine], the Ki [10] is given as 36 µM.
In the case of `O=C(OCC1OC(OC(=O)c2cc(O)c(O)c(O)c2)C2OC(=O)c3cc(O)c(O)c(O)c3-c3c(cc(O)c(O)c3O)C(=O)OC2C1OC(=O)c1cc(O)c(O)c(O)c1Oc1cc2c(c(O)c1O)-c1c(cc(O)c(O)c1O)C(=O)OC1C(COC2=O)OC(OC(=O)c2cc(O)c(O)c(O)c2)C2OC(=O)c3cc(O)c(O)c(O)c3-c3c(cc(Oc4c(C(=O)OC5C(COC(=O)c6cc(O)c(O)c(O)c6)OC(OC(=O)c6cc(O)c(O)c(O)c6)C6OC(=O)c7cc(O)c(O)c(O)c7-c7c(cc(Oc8c(C(=O)OC9OC%10COC(=O)c%11cc(O)c(O)c(O)c%11-c%11c(cc(O)c(O)c%11O)C(=O)OC%10C%10OC(=O)c%11cc(O)c(O)c(O)c%11-c%11c(cc(O)c(O)c%11O)C(=O)OC9%10)cc(O)c(O)c8O)c(O)c7O)C(=O)OC56)cc(O)c(O)c4O)c(O)c3O)C(=O)OC12)c1cc(O)c(O)c(O)c1` (stereo not shown) [nobotanin K], the “Inhibition of PAR catabolism” value [2] is listed as “little inhibitory effect” and the IC50 [3] is listed as 0.44 µM.
